For 1 molecule, inhibition and Activity results are on record in ChEMBL document CHEMBL3351591, “Synthetic (+)-terrein suppresses interleukin-6/soluble interleukin-6 receptor induced-secretion of vascular endothelial growth factor in human gingival fibroblasts” (Bioorg Med Chem, 2014).

Calls of active or inactive are those of the source. The calls are words filed in the database; no cut-off is given here.

Data set [1] has as its system HGF. In words: Inhibition of IL-6/soluble IL-6 receptor signaling-induced VEGF secretion in HGF cells pre-incubated for 30 mins before IL-6/soluble IL-6 receptor stimulation for 24 hrs by ELISA method. The class given is cell-based. The following applies: Homo sapiens.
The test system of data set [2] is HGF. Put plainly: Inhibition of IL-6/soluble IL-6 receptor signaling-induced JNK1/2 phosphorylation in HGF cells pre-incubated at 10 to 20 uM for before IL-6/soluble IL-6 receptor stimulation for 5 mins by Western blotting method. The class given is cell-based. To be noted: Homo sapiens. (In general: A western blot detects proteins with antibodies after separation by electrophoresis.)

The nature of data set [3]: Cytotoxicity against HGF cells assessed as reduction in cell proliferation at >50 uM incubated for 24 hrs by MTT assay. The following applies: human. The class given is cell-based. A general note: Formazan colour is commonly taken as a measure of viable cells.
Data set [4] in a line: Cytotoxicity against HGF cells assessed as cell proliferation at <10 uM incubated for 24 hrs by MTT assay. The following applies: human. The class given is cell-based.
Data set [5] concerns HGF. In words: Inhibition of IL-6/soluble IL-6 receptor signaling-induced ERK1/2 phosphorylation in HGF cells pre-incubated at 10 to 20 uM for before IL-6/soluble IL-6 receptor stimulation for 5 mins by Western blotting method. The class given is cell-based. The following applies: Homo sapiens.
For data set [6], the system named is HGF. In words: Inhibition of IL-6/soluble IL-6 receptor signaling-induced STAT3 phosphorylation in HGF cells pre-incubated at 10 to 20 uM for before IL-6/soluble IL-6 receptor stimulation for 5 mins by Western blotting method. To be noted: Homo sapiens. The class given is cell-based.
The test system of data set [7] is HGF. Put plainly: Inhibition of endogenous VEGF secretion in HGF cells at 0.01 to 10 uM by ELISA method. The class given is functional, cell-based. The following applies: Homo sapiens. On the technique in general: ELISA stands for enzyme-linked immunosorbent assay.

Consider `C/C=C/C1=CC(=O)[C@H](O)[C@H]1O`, for which, in data set [1], the inhibition result was “Dose-dependent effect”. For the same molecule, the inhibition entry in data set [2], in data set [5] and in data set [6] was “Active” throughout. The Activity result is given as “Toxic” in data set [3] and “Non-toxic” in data set [4]. In addition, the inhibition entry in data set [7] was “inactive”.
